Reference: PubChem BioAssay (NCI)
Values joined by “and” are separate entries in the source; they are usually repeats but may differ in a detail not shown here. Equal entries are not always repeated.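 Tested at 5 concentrations; 48 h exposure; 96-well plates; endpoints linearly interpolated, else capped at highest concentration. The concentration for 50% growth inhibition is given as GI50. TGI: total growth inhibition.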

Tests used:
Assay in all cases: NCI-60 cell line screen, 48 h
SF-539 CNS = tested on: SF-539 CNS
SNB-19 CNS = tested on: SNB-19 CNS
RXF 393 renal = tested on: RXF 393 renal
CCRF-CEM leukemia = tested on: CCRF-CEM leukemia
SN12C renal = tested on: SN12C renal
A549 NSCLC = tested on: A549 NSCLC
NCI/ADR-RES ovarian = tested on: NCI/ADR-RES ovarian
HCT-116 colon = tested on: HCT-116 colon
DU-145 prostate = tested on: DU-145 prostate
OVCAR-4 ovarian = tested on: OVCAR-4 ovarian
M14 melanoma = tested on: M14 melanoma
A498 renal = tested on: A498 renal
OVCAR-3 ovarian = tested on: OVCAR-3 ovarian

SMILES	TGI (SF-539 CNS) [µM]	TGI (SNB-19 CNS) [µM]	TGI (RXF 393 renal) [µM]	TGI (CCRF-CEM leukemia) [µM]	TGI (SN12C renal) [µM]	TGI (A549 NSCLC) [µM]	TGI (NCI/ADR-RES ovarian) [µM]	TGI (HCT-116 colon) [µM]	TGI (DU-145 prostate) [µM]	TGI (OVCAR-4 ovarian) [µM]	TGI (M14 melanoma) [µM]	TGI (A498 renal) [µM]	TGI (OVCAR-3 ovarian) [µM]	GI50 (NCI/ADR-RES ovarian)	GI50 (DU-145 prostate) [µM]	GI50 (OVCAR-4 ovarian)	GI50 (A498 renal) [µM]
CC(=NNC(=S)Nc1ccccc1C)c1cccc(C(C)=NNC(=S)Nc2ccccc2C)n1	> 100	> 100	> 100	> 100	> 100	> 100	> 100	> 100	> 100	91.7	> 100	> 100					
COc1c(O)cc(/C=C/c2cc(O)cc3c2[C@@]2(C(=O)O3)c3c(O)cc(O)cc3OC2c2cccc(O)c2)cc1O (stereo not given in full)	> 100	> 100	> 100	> 100	64.3	> 100	77.8	> 100	> 100	91	> 100	> 100	> 100				
COc1ccc(CSCc2cc(OC)c(OC)c(OC)c2)cc1	> 100	> 100	> 100	> 100	> 100	> 100	> 31.6	> 31.6	> 100	> 100	> 100	> 100	> 100				
CCC(=O)N(c1ccccc1)C(C)CN1CCC(O)(c2ccccc2)CC1 (stereo not given)	> 100	> 100	> 100	> 100	> 100	> 100	> 100	> 100	> 100	> 100	> 100	> 100	> 100				
O=C(Nc1ccccc1)N1CCNC1=S	> 100		98.2	> 100	> 100	> 100	> 100	> 100	> 100	> 100	> 100	> 100	> 100				
Cn1c(=O)nc2n(CCO)c(-c3ccccc3)c(-c3ccccc3)nc-2c1=O	> 100	> 100	> 100	> 100	> 100	> 100	> 100	> 100	> 100	> 100	> 100	> 100	> 100				
NN/C(=N\S(=O)(=O)c1cc(Cl)c(Oc2ccc([N+](=O)[O-])cc2Cl)c(Cl)c1)Nc1ccc(Cl)cc1	31.3	62.4	28.4	37.5	33.2	41.8	67.9	29.1	38.4	57.1	31.2	64.4	33				
COC(=O)/C=C/c1cc(OC)c2c(c1)C(C(=O)OC)C(c1ccc(OC)c(OC)c1)O2 (stereo not given)		> 100	> 100	> 100	> 100	> 100	> 100	> 100	> 100	> 100	> 100	> 100	> 100	43.3 µM and 4.9 µM	> 100	45.9 µM and 8.71 µM	64.1
CN1CC=C(OP(=O)(NCc2ccccc2)N(CCCl)CCCl)CC1 (stereo not given)	> 100	> 100	> 100	> 100	> 100		> 100	> 100	> 100	> 100	> 100	> 100	> 100				
CCCCCCC(N)(CCCCCC)C(=O)Nn1c(C)ccc1C		> 100	> 100	> 100	> 100	65.3	> 100	> 100	> 100	> 100	> 100	> 100	> 100				
COc1cc(C2c3cccc4cccc(c34)C3CCC(=O)N32)cc(O)c1O (stereo not given)	> 50	> 50	> 50	31.4	> 50	> 50	> 50	> 50	> 50	45	> 50	> 50	> 50				
CSc1nc(C)cc(Nc2ccc(O)c(CN3CCCCC3)c2)n1	> 100	> 100	> 100		> 100	> 100	> 100	> 100	> 100	> 100	31.8	53.1	> 100				
Cc1ccc2c(c1)C(C1Cc3c(C)cccc3C1=O)OC2=O (stereo not given)	> 100	> 100	> 100	> 100	> 100	> 100	> 100	> 100	> 100	> 100	> 100	> 100	> 100				
CCOC(=O)CCc1c(C(=O)OCC)[nH]c(/C=C2/NC(=O)C(C)=C2CC)c1C	44.4	37.2	30.3		37.9	> 100	36.9	28.1	44.6	8.91	20.8	77.6	16.1				
O=C(/C=C/c1ccc(O)c(O)c1)NC(CO)C(=O)O (stereo not given)	> 100	> 100	> 100	> 100	> 100	> 100	64.6	> 100	> 100	> 100	> 100	> 100	> 100				
Oc1cn(-c2ccc(Cl)cc2)nc1-c1nnc(Nc2ccccc2)o1	30.8	50.5	39.6		32.2	43.3	30.1	29.6	42.1	> 100	37.5	29.5	> 100				
CC(=O)c1c2c(cc3c1CC1(Cc4cc5c(cc4C1)CCC5)C3)CCC2	> 100	> 100	> 100	> 100		> 100	> 100	> 100	> 100	> 100	> 100	> 100	> 100				
C/C(C=O)=N\Nc1cc(C)c2ccccc2n1	28.8	52	43.1	29.3	33	43	31	27.6	29.9	27.8	31.8	28.9	29.1				

SMILES	TGI (SF-539 CNS) [µM]	TGI (SNB-19 CNS) [µM]	TGI (RXF 393 renal) [µM]	TGI (CCRF-CEM leukemia) [µM]	TGI (SN12C renal) [µM]	TGI (A549 NSCLC) [µM]	TGI (NCI/ADR-RES ovarian) [µM]	TGI (HCT-116 colon) [µM]	TGI (DU-145 prostate) [µM]	TGI (OVCAR-4 ovarian) [µM]	TGI (M14 melanoma) [µM]	TGI (A498 renal) [µM]	TGI (OVCAR-3 ovarian) [µM]	GI50 (NCI/ADR-RES ovarian)	GI50 (DU-145 prostate) [µM]	GI50 (OVCAR-4 ovarian)	GI50 (A498 renal) [µM]
Cc1sc2ncnc(NCCc3ccccc3)c2c1C	31.2	> 100	34.1	49.3	28.3	83	> 100	24.9	70.9	59	41.3	29	> 100				
O=C(CNC(=O)OCc1ccccc1)NCCCCC(NC(=O)OCc1ccccc1)C(=O)O (stereo not given)	> 100	> 100	> 100	> 100	> 100	> 100	> 100	> 100	> 100	> 100	> 100	> 100	> 100				
Cc1ccc2c(ccc3c[n+]4ccccc4c(C)c32)c1	9.83	12.8	> 100	> 100	3.46	40.9	> 100	27.2	26.6	10.8	20.9	> 100	4.02				
COc1ccc(NC=O)c(C(O)CCNC(C)=O)c1 (stereo not given)	> 100	> 100	> 100	> 100	> 100	> 100	> 100	> 100	> 100	> 100	> 100	> 100	> 100				
N[C@@H]1C[C@H](N)c2c(Cl)sc(Cl)c21	> 100	> 100	> 100	> 100	> 100	> 100	> 100	> 100	> 100	> 100	> 100	> 100	> 100				
C[N+](C)(C)CC1Cc2ccccc2C1=O (stereo not given)	> 10	> 10	> 10	4.22	> 10	> 10	> 6.85	3.11	> 10	8.07	> 6.99	> 10	> 10				
CCOP(=O)(CS(C)=O)O[C@@H]1C[C@H](C)CC[C@H]1C(C)C (stereo not given in full)	26.9	25.7	7.83	11.5	6.12	17.7	26	> 23.9	26.2	> 39.3	31.2	4.87	15.7				
CCCCCCCCCC(=O)OCC1(CO)C/C(=C/CC(C(C)C)C(C)C)C(=O)O1 (stereo not given)		> 100	> 100	73.1	> 100	> 100	> 100	> 100	> 100	> 100	> 100	> 100	> 100				
O=c1cc(-c2ccc(O)c(O)c2)oc2cc(OC3OC(CO)C(O)C(O)C3O)cc(O)c12 (stereo not given)	> 100	> 100	> 100		> 100	> 100	> 100	> 100	> 100	> 100	> 100	> 100	> 100				
CC[C@@]1(O)C(=O)OCc2c1c(Cl)c1n(c2=O)Cc2cc3ccccc3nc2-1	6.09	56.7	15.1	> 29	> 61.8	> 63.2	15.1	8.76	8.63	63.1	9.04	8.45	22.1				
CN(C)c1ccc(C(C#N)N2CCCN(C(C#N)c3ccc(N(C)C)cc3)C2c2ccc(N(C)C)cc2)cc1 (stereo not given)	> 100	> 100	> 100	> 100	> 100	> 100	> 100	> 100	> 100	> 100	> 100	> 100	> 100				
CC(=O)Nc1c(C)cc(OCC(=O)O)cc1C		> 100	> 100	> 100	> 100	> 100	> 100	> 100	> 100	> 100	> 100	> 100	> 100				
C1CSCC2(COC2)CS1		> 100	> 100	> 100	> 100	> 100	> 100	> 100	> 100	> 100		> 100					
N#Cc1cnn2c1n[n+]([O-])c1ccc(Cl)cc12	44.5	10.1	42.4	4.34	20.7	> 79.8	> 32.3	22.7	28.5	4.03	31.8	46	9.08				
COc1ccc(/C=C/C(=O)NCC(NC(=O)/C=C/c2ccc(OC)c(OC)c2)C(=O)O)cc1OC (stereo not given)	> 100	> 100	> 100	> 100	> 100	> 100	0.0691	> 100	> 100	> 100	> 100	> 100	> 100				
CCOC(=O)[C@H]1C[C@@H](C(=O)c2ccccc2)N2N=C(c3ccc(Br)cc3)C=C[C@H]12		> 100	> 100		> 100	> 100	> 100	> 100	> 100	> 100	> 100	> 100	> 100				
CSc1nc(=S)[nH]c2n[nH]c(C)c12	> 100	> 100	> 100	> 100	> 100	> 100	> 100	> 100	> 100	> 100	> 100	> 100	> 100				
O=C1C(NCCc2cc(Br)c(O)c(Br)c2)=CC(=O)c2ncccc21	5.36	27.5	29.1	23.5	14.7	9.89	49.5	12.4	12	16.7	8.36	9.88	6.26				
